Test results taken from US11530458B2, “Methods of using multi-ligand metal complexes to perform oxidative catalytic pretreatment of lignocellulosic biomass” (Board of Trustees of Michigan State University, priority 2014, dated 2022).

What was measured:
[1] = Catalytic AOP pretreatment of alkali-extracted switchgrass, then enzymatic hydrolysis (glucose yield); set-up: species or system Panicum virgatum; conditions: 24 hr AOP pretreatment of AESG, catalyst concentration per table
Method: Screening of various metal ligand complexes (hereinafter “catalysts”) was performed via catalytic alkaline oxidative pretreatment (AOP) pretreatment of alkali-extracted switchgrass (AESG). To prepare AESG, 80 grams of untreated switchgrass (Panicum virgatum, cv. Cave-In-Rock, hammer milled to pass a 5-mm screen, and stored at a moisture content of approximately 5%) was soaked in an aqueous solution of 5 g/L NaOH at 80° C. for 2 hrs. The weight-to-volume (w/v) solids loading of switchgrass during alkaline extraction was 10% (e.g., 10 g of biomass in 100 mL NaOH solution). […] The washed solids was recovered as AESG and air-dried for over 7 days.
[Al(III)(3,5-^tBu2-salophen)Cl] [3,5-^tBu2-salophen=N,N′-bis(3,5-di-tert-butylsalicylidene)-1,2-phenylenediamine], [Zn(II)(BPPA)Cl]Cl [BPPA=N,N-bis(6-pivaloylamido-2-pyridylmethyl)-N-(2-pyridylmethyl)amine], and [NEt4][Fe(III)(bpb)Cl2]
To study the effect of catalytic AOP pretreatment on AESG, pretreatment was performed in a 100 g/L aqueous suspension of AESG in the presence of each catalyst. […] After 24 hrs of incubation at 30° C. without mixing, the pretreated switchgrass slurry was washed using deionized water to remove the alkaline phosphate buffer.
The enzymatic digestibility of AOP-pretreated switchgrass was estimated by the yield of glucose during the enzymatic hydrolysis of AOP pretreated AESG. The percentage yield was calculated on the basis of the glucan content in AESG prior to catalytic AOP pretreatment.
For enzymatic hydrolysis, 500 μL of 1 M Na-citrate buffer (pH 5) and 40 μL of 10 mM tetracycline (Sigma-Aldrich) were added to AOP-AESG that was not dried after catalytic AOP pretreatment. Accellerase 1500 (42 FPU/mL; Danisco-Genencor, Palo Alto, Calif.) was added at 50 mg protein per gram of glucan in AESG. The total volume of the mixture (solid and liquid) was adjusted with deionized water to reach a 5% (w/v) solids concentration, and the samples were incubated at 50° C. during hydrolysis.

[2] = Catalytic AOP pretreatment of hybrid poplar with multi-ligand catalysts, then enzymatic hydrolysis (glucose conversion); set-up: species or system Populus nigra var. charkoviensis×caudina cv. NE-19; conditions: for Glucose (Glucose Conversions): hybrid poplar, 270 mM NaOH, 10% H2O2, 24 hrs 30° C.
Method: Enzymatic hydrolysis was performed on the solid poplar slurry at 50° C. in the same rotary shaker used for the extraction step. In preparation for hydrolysis, 20 μL of 72% (w/w) H2SO4 and 500 μL of 1 M sodium citrate buffer (pH 5) (prepared from sodium citrate and citric acid) were added to the solid poplar slurry to adjust the pH to 5 (optimum pH for the enzymes being used herein). Thereafter, 40 μL of 10 mM tetracycline (Sigma-Aldrich) stock solution was added to the solid poplar slurry to inhibit microbial growth. This step was followed by addition of a Cellic CTec2 and HTec2 (Novozymes A/S, Bagsværd, DK) enzyme cocktail at a loading of 30 mg protein/g glucan in the biomass prior to extraction and catalytic pretreatment, unless otherwise noted. The enzymatic reaction (50° C., 210 rpm, 72 hrs) was carried out at 5% solids concentration by adjusting the volume of the poplar slurry to 10 mL via the addition of deionized water.
Following enzymatic hydrolysis, the resulting solid and liquid phases were separated by centrifugation in same manner as in Example 2, to produce separated hydrolyzed solid and liquid phases. The amount of glucose and xylose released into the aqueous phase was quantified by High Performance Liquid Chromatography (HPLC) (Agilent 1260 Series equipped with an Aminex® HPX-87H column operating at 65° C., a mobile phase of 0.05 M H2SO4, and a flow rate of 0.6 mL per minute, and detection by refractive index). The yield of glucose and xylose released was defined as the amount of solubilized monosaccharide divided by the total sugar content of the poplar biomass prior to incubation and catalytic pretreatment as determined by chemical composition analysis.
Hybrid poplar (0.5 g) (same source as Example 2) was catalytically pretreated using 1 mM of a stock solution of multi-ligand copper complex, namely copper (II) 2,2′ bipyridine ethylenediamine (Cu(bpy)en) containing 40 mM copper sulphate pentahydrate, 40 mM bipyridine and 40 mM ethylenediamine in deionized water, together with 270 mM NaOH and 10% H2O2 loading (w/w) on biomass in a total 5 mL volume made with deionized water. Other components of the pretreatment catalyst include tetraacetylethylenediamine (TAED), ethylenediaminetetraacetic acid (EDTA), manganese sulfate, and magnesium sulfate. The catalytic pretreatment was allowed to proceed for approximately 24 hrs at 30° C.
Thereafter, the resulting poplar slurry was pH adjusted to 5 and hydrolyzed according to the process described in Example 3. Following enzymatic hydrolysis, the solid and liquid phases were separated by centrifugation as described in Example 3.

[3] = catalyst concentration not given

| Compound | Glucose yield of enzymatic hydrolysis (% of theoretical maximum) ([1]; pH 3, 24 hrs hydrolysis) | Glucose yield of enzymatic hydrolysis (% of theoretical maximum) ([1]; pH 3, 72 hrs hydrolysis) | Glucose yield of enzymatic hydrolysis (% of theoretical maximum) ([1]; pH 11, 24 hrs hydrolysis) | Glucose yield of enzymatic hydrolysis (% of theoretical maximum) ([1]; pH 11, 72 hrs hydrolysis) | Glucose yield of enzymatic hydrolysis (% of theoretical maximum) ([1]; pH 10, 24 hrs hydrolysis) | also measured |
| --- | --- | --- | --- | --- | --- | --- |
| C1=Cc2nc1c(-c1ccccc1)c1ccc([nH]1)c(-c1ccccc1)c1nc(c(-c3ccccc3)c3ccc([nH]3)c2-c2ccccc2)C=C1.[Fe+3] [Fe(III)-tetraphenylporphyrin] | 31.55 ± 1.6 % of theoretical maximum | 42.13 ± 1.89 % of theoretical maximum | 36.98 ± 1.3 % of theoretical maximum | 42.14 ± 0.63 % of theoretical maximum |  |  |
| O=S(=O)([O-])[O-].[Cu+2] [CuSO4, copper sulfate] |  |  |  |  |  | Glucose (Glucose Conversions) [2, 3]: 40.62 |
| O=S(=O)([O-])[O-].[Mg+2] [MgSO4, magnesium sulfate] |  |  |  |  |  | Glucose (Glucose Conversions) [2, 3]: 25.17 |
| CC(C)(C)c1cc(C=Nc2ccccc2N=Cc2cc(C(C)(C)C)cc(C(C)(C)C)c2[O-])c([O-])c(C(C)(C)C)c1.[Al+3].[Cl-] [[Al(III)(3,5-^tBu2-salophen)Cl]] |  |  | 29.80 ± 0.25 % of theoretical maximum |  | 28.90 ± 0.17 % of theoretical maximum | Glucose yield of enzymatic hydrolysis (% of theoretical maximum) ([1]; pH 13, 24 hrs hydrolysis): 34.19 ± 0.41 % of theoretical maximum |
| CC(C)(C)C(=O)Nc1cccc(CN(Cc2ccccn2)Cc2cccc(NC(=O)C(C)(C)C)n2)n1.[Cl-].[Cl-].[Zn+2] [[Zn^II(BPPA)Cl]Cl, [Zn(II)(BPPA)Cl]Cl] |  |  | 27.33 ± 0.62 % of theoretical maximum |  | 26.43 ± 0.31 % of theoretical maximum | Glucose yield of enzymatic hydrolysis (% of theoretical maximum) ([1]; pH 13, 24 hrs hydrolysis): 33.36 ± 0.3 % of theoretical maximum |
| Fc1c(F)c(F)c(-c2c3nc(c(-c4c(F)c(F)c(F)c(F)c4F)c4ccc([nH]4)c(-c4c(F)c(F)c(F)c(F)c4F)c4nc(c(-c5c(F)c(F)c(F)c(F)c5F)c5ccc2[nH]5)C=C4)C=C3)c(F)c1F.[Fe+3] [Fe(III)-tetrakis-pentafluorophenyl)-porphyrin] | 29.18 ± 0.33 % of theoretical maximum | 35.38 ± 0.43 % of theoretical maximum | 35.37 ± 0.45 % of theoretical maximum | 40.25 ± 0.19 % of theoretical maximum |  |  |
| NCCN.[Cu+2].c1ccc(-c2ccccn2)nc1 [Cu(bpy)en, copper (II) 2,2′ bipyridine ethylenediamine] |  |  |  |  |  | Glucose (Glucose Conversions) ([2]; catalyst 1 mM): 55.00; Glucose (Glucose Conversions) ([2]; catalyst 2 mM): 48.15; Glucose yields compared to other catalyst systems ([2]; in words): higher glucose yields compared to other catalyst systems tested |
| Fe(III)-phthalocyanine | 30.91 ± 0.24 % of theoretical maximum | 36.80 ± 2.84 % of theoretical maximum | 34.21 ± 0.23 % of theoretical maximum | 38.75 ± 1.52 % of theoretical maximum |  |  |
| CC[N+](CC)(CC)CC.O=C([N-]c1ccccc1[N-]C(=O)c1ccccn1)c1ccccn1.[Cl-].[Cl-].[Fe+3] [[NEt4][Fe(III)(bpb)Cl2]] |  |  | 27.44 ± 1.54 % of theoretical maximum | 31.54 ± 0.23 % of theoretical maximum | 25.54 ± 0.21 % of theoretical maximum | Glucose yield of enzymatic hydrolysis (% of theoretical maximum) ([1]; pH 9, 24 hrs hydrolysis): 27.07 ± 0.6 % of theoretical maximum; Glucose yield of enzymatic hydrolysis (% of theoretical maximum) ([1]; pH 9, 72 hrs hydrolysis): 34.27 ± 0.21 % of theoretical maximum; Glucose yield of enzymatic hydrolysis (% of theoretical maximum) ([1]; pH 10, 72 hrs hydrolysis): 31.97 ± 0.13 % of theoretical maximum |
